Among the data in PubChem BioAssay AID588710 (Vanderbilt Specialized Chemistry Center, 2011) are IC50 values, retold here.

The target of this test is Metabotropic glutamate receptor 5 (Rattus norvegicus) (UniProt P31424). Kind of test: PubChem AID 588710. The conditions noted are these: HEK293 rat mGluR5 membranes, [3H]methoxyPEPy displacement.

Molecules are shown by their SMILES.

Sequence of Metabotropic glutamate receptor 5 (Rattus norvegicus) (P31424 whole entry, looked up): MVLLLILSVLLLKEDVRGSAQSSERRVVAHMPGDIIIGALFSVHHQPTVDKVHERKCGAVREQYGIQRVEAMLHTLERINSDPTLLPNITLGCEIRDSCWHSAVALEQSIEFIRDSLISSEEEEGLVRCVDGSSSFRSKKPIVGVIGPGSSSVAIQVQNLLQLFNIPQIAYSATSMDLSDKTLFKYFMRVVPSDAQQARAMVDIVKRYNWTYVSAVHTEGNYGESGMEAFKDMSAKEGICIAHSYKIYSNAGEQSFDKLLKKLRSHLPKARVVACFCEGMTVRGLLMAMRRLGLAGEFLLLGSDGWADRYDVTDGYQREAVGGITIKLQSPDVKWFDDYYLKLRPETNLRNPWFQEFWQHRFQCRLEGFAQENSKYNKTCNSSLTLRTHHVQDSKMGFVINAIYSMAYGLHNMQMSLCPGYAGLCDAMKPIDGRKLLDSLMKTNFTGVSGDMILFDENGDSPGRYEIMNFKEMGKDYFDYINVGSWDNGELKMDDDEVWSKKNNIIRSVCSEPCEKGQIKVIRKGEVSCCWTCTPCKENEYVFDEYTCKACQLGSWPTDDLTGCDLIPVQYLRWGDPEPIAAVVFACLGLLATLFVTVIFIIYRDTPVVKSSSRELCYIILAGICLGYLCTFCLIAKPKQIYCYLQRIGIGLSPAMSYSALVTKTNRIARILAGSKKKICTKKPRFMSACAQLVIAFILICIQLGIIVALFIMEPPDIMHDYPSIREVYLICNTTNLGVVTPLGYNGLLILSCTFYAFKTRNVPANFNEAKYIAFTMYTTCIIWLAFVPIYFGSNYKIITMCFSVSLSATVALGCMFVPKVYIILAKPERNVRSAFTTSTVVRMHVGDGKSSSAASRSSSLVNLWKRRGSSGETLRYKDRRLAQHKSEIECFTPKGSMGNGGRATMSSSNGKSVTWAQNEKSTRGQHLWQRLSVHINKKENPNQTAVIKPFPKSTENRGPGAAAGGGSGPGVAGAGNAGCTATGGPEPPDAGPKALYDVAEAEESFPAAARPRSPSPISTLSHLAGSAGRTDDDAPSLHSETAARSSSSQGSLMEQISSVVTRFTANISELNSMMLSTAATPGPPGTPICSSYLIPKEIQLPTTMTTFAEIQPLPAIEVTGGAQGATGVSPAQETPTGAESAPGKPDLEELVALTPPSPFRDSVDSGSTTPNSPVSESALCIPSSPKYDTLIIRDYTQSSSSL

In the case of `C[C@@H](NC(=O)c1ccc(C#Cc2cccc(F)c2)cn1)C(C)(C)O`, the IC50 is 4.84 nM.
